Values quoted from earlier work, collected in patent US20150306111A1 (priority 2012, published 2015).
Entries after “also recorded” stand apart in the source; their conditions may differ. Read-outs that look alike come from different tables or passages of the source.

Key:
[1] = test system: asthma patients with seasonal allergic rhinitis and nasal congestion; details: daily dose of 5 mg, 331 patients

For `Clc1ccc2c(c1)CCc1cccnc1C2=C1CCNCC1` [desloratadine], the “Solubility in ethyl alcohol” value (ethyl alcohol) is given as “very soluble in ethyl alcohol”, the “Solubility in propylene glycol” value (propylene glycol) is given as “moderately soluble in propylene glycol” and the Solubility in water is given as “practically insoluble in water; also recorded: low solubility in water”. The Solubility in water (listed as Desloratadine) was “poorly soluble in water” and the “Effect on symptoms compared with placebo” value [1] was “effective in reducing overall symptoms, the symptoms of asthma and the symptoms of nasal congestion”.
